According to the supplement of paper PMC10307832:

Experiments:
Assay in all cases: relative viability (nuclei count vs DMSO), 5 days (fraction); higher = more cells survive
[1] = compound: CS(=O)(=O)c1ccc(-c2cnc(N)c(C(=O)Nc3ccccc3)n2)cc1 [VE-821] + C[C@@H](Oc1cc(-c2cnn(C3CCNCC3)c2)cnc1N)c1c(Cl)ccc(F)c1Cl [Crizotinib] (partner 1 µM)
Outline: (§1)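 Relative viability is defined as nuclei in treated wells over nuclei in vehicle wells. Duplicate plates were run and medians reported. Lung cancer cell lines in 1536-well plates were dosed by pin tool one day after seeding, with one drug or with a fixed anchor-drug dose plus five library-drug doses (not always all listed) in √10 steps, and nuclei were counted after 5 days.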

[2] = compound: CS(=O)(=O)c1ccc(-c2cnc(N)c(C(=O)Nc3ccccc3)n2)cc1 [VE-821] + C[C@]1(O)C[C@@H](c2nc(-c3ccc4ccc(-c5ccccc5)nc4c3)c3c(N)nccn32)C1 [Linsitinib] (partner 1 µM)
Outline: as §1

[3] = compound: CS(=O)(=O)c1ccc(-c2cnc(N)c(C(=O)Nc3ccccc3)n2)cc1 [VE-821] + Cc1nc(NC(=O)N2CCC[C@H]2C(N)=O)sc1-c1ccnc(C(C)(C)C(F)(F)F)c1 [Alpelisib] (partner 2 µM)
Outline: as §1

[4] = compound: CS(=O)(=O)c1ccc(-c2cnc(N)c(C(=O)Nc3ccccc3)n2)cc1 [VE-821] + O=C(c1cc(Cc2n[nH]c(=O)c3ccccc23)ccc1F)N1CCN(C(=O)C2CC2)CC1 [Olaparib] (partner 8 µM)
Outline: as §1

Cell Line | relative viability ([1]; first compound 0.08 µM) | relative viability ([1]; first compound 0.253 µM) | relative viability ([1]; first compound 0.8 µM) | relative viability ([1]; first compound 2.53 µM) | relative viability ([1]; first compound 8 µM) | relative viability ([2]; first compound 0.08 µM) | relative viability ([2]; first compound 0.253 µM) | relative viability ([2]; first compound 0.8 µM) | relative viability ([2]; first compound 2.53 µM) | relative viability ([2]; first compound 8 µM) | relative viability ([3]; first compound 0.08 µM) | relative viability ([3]; first compound 0.253 µM) | relative viability ([3]; first compound 0.8 µM) | relative viability ([3]; first compound 2.53 µM) | relative viability ([3]; first compound 8 µM) | relative viability ([4]; first compound 0.08 µM) | relative viability ([4]; first compound 0.253 µM) | relative viability ([4]; first compound 0.8 µM) | relative viability ([4]; first compound 2.53 µM) | relative viability ([4]; first compound 8 µM)
NCI-H2009 | 1.08 | 1.01 | 0.963 | 1.02 | 0.879 | 1.23 | 1.19 | 1.12 | 1.22 | 1.23 | 1.11 | 1.18 | 1.12 | 1.19 | 1.28 | 0.701 | 0.661 | 0.57 | 0.566 | 0.499
NCI-H2023 | 0.715 | 0.659 | 0.395 | 0.316 | 0.193 | 0.779 | 0.642 | 0.329 | 0.539 | 0.225 | 0.748 | 0.588 | 0.295 | 0.547 | 0.372 | 0.576 | 0.4 | 0.222 | 0.169 | 0.0964
NCI-H2085 | 1.02 | 0.755 | 0.824 | 0.954 | 0.755 | 0.979 | 0.891 | 0.847 | 0.941 | 0.926 | 1 | 0.853 | 0.713 | 0.984 | 0.922 | 0.774 | 0.747 | 0.844 |  | 0.694
NCI-H2087 | 1.21 | 0.891 | 1 | 0.902 | 0.93 | 1.18 | 0.873 | 1.23 | 1.05 | 0.864 | 1.18 | 0.945 | 1.4 | 1.06 | 1.06 | 0.784 | 0.64 | 0.67 | 0.583 | 0.462
NCI-H2126 | 1.02 | 0.954 | 0.954 | 0.965 | 0.859 | 0.805 | 0.652 | 0.589 | 0.715 | 0.627 | 0.757 | 0.744 | 0.625 | 0.747 | 0.645 | 1.01 | 0.907 | 0.969 | 0.927 | 0.682
NCI-H2228 | 0.479 | 0.459 | 0.414 | 0.37 | 0.35 | 0.955 | 0.866 | 0.635 | 0.758 | 0.395 | 0.7 | 0.825 | 0.683 | 0.687 | 0.737 | 0.506 | 0.625 | 0.641 | 0.534 | 0.222
NCI-H2347 | 0.723 | 0.794 | 0.684 | 0.983 | 0.713 | 1.02 | 1.05 | 1.07 | 1.21 | 1.06 | 1.08 | 0.997 | 0.916 | 1.18 | 0.977 | 0.574 | 0.531 | 0.598 | 0.618 | 0.635
NCI-H2405 | 1.01 | 0.81 | 0.776 | 0.924 | 0.788 | 0.881 | 0.943 | 0.724 | 1.09 | 0.693 | 0.908 | 0.808 | 0.67 | 0.984 | 0.573 | 0.937 | 0.828 | 0.846 | 0.997 | 0.805
NCI-H3122 | 0.283 | 0.281 | 0.32 | 0.356 | 0.331 | 1.06 | 0.955 | 0.989 | 1.05 | 0.967 | 0.949 | 0.746 | 0.774 | 0.871 | 0.78 | 0.622 | 0.495 | 0.432 | 0.378 | 0.221
PC-3 [JPC-3] | 1.06 | 0.968 | 1.1 | 0.98 | 0.963 | 0.923 | 0.932 | 1.05 | 1.07 | 1.01 | 1.05 | 0.957 | 1.02 | 1.05 | 1.04 | 1.19 | 1.15 | 1.24 | 1.12 | 0.958
PC-14 | 1.06 | 0.846 | 0.856 | 0.916 | 0.877 | 1.02 | 0.911 | 0.95 | 1.02 | 0.971 | 1.08 | 0.863 | 0.981 | 0.931 | 0.936 | 0.292 | 0.282 | 0.167 | 0.137 | 0.097
RERF-LC-KJ | 0.839 | 0.806 | 0.775 | 0.701 | 0.693 | 0.902 | 0.871 | 0.819 | 0.875 | 0.753 | 0.898 | 0.774 | 0.664 | 0.799 | 0.712 | 0.946 | 0.819 | 0.851 | 0.698 | 0.49
SK-LU-1 | 0.788 | 0.863 | 0.884 | 0.591 | 0.387 | 1.15 | 0.86 | 1.07 | 0.843 | 0.383 | 1.02 | 0.964 | 0.803 | 0.499 | 0.328 | 0.51 | 0.497 | 0.462 | 0.401 | 0.324
SK-MES-1 | 1.07 | 0.93 | 0.924 | 0.95 | 0.896 | 1.04 | 1.05 | 1.02 | 1.02 | 0.983 | 1.03 | 0.847 | 0.776 | 0.954 | 0.866 | 0.885 | 0.747 | 0.638 | 0.531 | 0.243
SW 1573 | 0.944 | 0.675 | 0.636 | 0.963 | 0.855 | 0.912 | 0.859 | 0.789 | 0.874 | 0.874 | 1.07 | 0.713 | 0.745 | 0.888 | 0.774 | 0.533 | 0.516 | 0.418 | 0.269 | 0.21
